# Assay results as given in PubChem BioAssay (NCI).
#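 Abbreviation: GI50, concentration required for 50% inhibition of growth. TGI denotes the concentration required for complete inhibition of growth.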
# Assays:
# Assay in all cases: NCI-60 cell line screen, 384-well format
# SNB-75 CNS = test system: SNB-75 CNS
# CAKI-1 renal = test system: CAKI-1 renal
# UACC-62 melanoma = test system: UACC-62 melanoma
# SW-620 colon = test system: SW-620 colon
# CCRF-CEM leukemia = test system: CCRF-CEM leukemia
# HL-60(TB) leukemia = test system: HL-60(TB) leukemia
# MDA-MB-231 breast = test system: MDA-MB-231 breast
# EKVX NSCLC = test system: EKVX NSCLC
# SR leukemia = test system: SR leukemia
# NCI-H23 lung = test system: NCI-H23 lung
# A498 renal = test system: A498 renal
# SF-268 CNS = test system: SF-268 CNS
# IGROV1 ovarian = test system: IGROV1 ovarian
# RXF 393 renal = test system: RXF 393 renal
# TK-10 renal = test system: TK-10 renal
# SNB-19 CNS = test system: SNB-19 CNS
# SK-MEL-28 melanoma = test system: SK-MEL-28 melanoma
# HCC-2998 colon = test system: HCC-2998 colon
# ACHN renal = test system: ACHN renal
# OVCAR-4 ovarian = test system: OVCAR-4 ovarian
# UACC-257 melanoma = test system: UACC-257 melanoma
# K-562 leukemia = test system: K-562 leukemia
# SF-539 CNS = test system: SF-539 CNS
# M14 melanoma = test system: M14 melanoma
# PC-3 prostate = test system: PC-3 prostate
# HOP-62 NSCLC = test system: HOP-62 NSCLC
# 786-0 renal = test system: 786-0 renal
# HT29 colon = test system: HT29 colon
# SF-295 CNS = test system: SF-295 CNS
# NCI-H460 NSCLC = test system: NCI-H460 NSCLC
# OVCAR-5 ovarian = test system: OVCAR-5 ovarian
# HCT-15 colon = test system: HCT-15 colon
# MDA-MB-468 breast = test system: MDA-MB-468 breast
# UO-31 renal = test system: UO-31 renal
# LOX IMVI melanoma = test system: LOX IMVI melanoma
# T-47D breast = test system: T-47D breast
# MALME-3M melanoma = test system: MALME-3M melanoma
# KM12 colon = test system: KM12 colon
# NCI-H522 lung = test system: NCI-H522 lung
# SK-MEL-5 melanoma = test system: SK-MEL-5 melanoma
# SK-OV-3 ovarian = test system: SK-OV-3 ovarian
# NCI-H226 lung = test system: NCI-H226 lung
# SN12C renal = test system: SN12C renal
# MCF7 breast = test system: MCF7 breast
# RPMI-8226 leukemia = test system: RPMI-8226 leukemia
# MOLT-4 leukemia = test system: MOLT-4 leukemia
# NCI-H322M lung = test system: NCI-H322M lung
# DU-145 prostate = test system: DU-145 prostate
# BT-549 breast = test system: BT-549 breast
# MDA-MB-435 melanoma = test system: MDA-MB-435 melanoma
# OVCAR-3 ovarian = test system: OVCAR-3 ovarian
# COLO 205 colon = test system: COLO 205 colon
# A549 NSCLC = test system: A549 NSCLC
# OVCAR-8 ovarian = test system: OVCAR-8 ovarian
# NCI/ADR-RES ovarian = test system: NCI/ADR-RES ovarian
structure (smiles),measurement,setting,value
Cc1nc2ccc(CN(C)c3ccc(C(=O)N[C@@H](CCC(=O)O)C(=O)O)s3)cc2c(=O)[nH]1,GI50,SNB-75 CNS,< 10 nM
same,TGI,SNB-75 CNS,> 100000 nM
same,GI50,CAKI-1 renal,< 10 nM
same,TGI,CAKI-1 renal,> 100000 nM
same,GI50,UACC-62 melanoma,23.3 nM
same,TGI,UACC-62 melanoma,> 100000 nM
same,GI50,SW-620 colon,< 10 nM
same,TGI,SW-620 colon,> 100000 nM
same,GI50,CCRF-CEM leukemia,< 10 nM
same,TGI,CCRF-CEM leukemia,< 10 nM
same,GI50,HL-60(TB) leukemia,< 10 nM
same,TGI,HL-60(TB) leukemia,< 10 nM
same,GI50,MDA-MB-231 breast,8370 nM
same,TGI,MDA-MB-231 breast,> 100000 nM
same,GI50,EKVX NSCLC,> 100000 nM
same,TGI,EKVX NSCLC,> 100000 nM
same,GI50,SR leukemia,< 10 nM
same,TGI,SR leukemia,< 10 nM
same,GI50,NCI-H23 lung,490 nM
same,TGI,NCI-H23 lung,> 100000 nM
same,GI50,A498 renal,< 10 nM
same,TGI,A498 renal,> 100000 nM
same,GI50,SF-268 CNS,< 10 nM
same,TGI,SF-268 CNS,< 10 nM
same,GI50,IGROV1 ovarian,46.2 nM
same,TGI,IGROV1 ovarian,> 100000 nM
same,GI50,RXF 393 renal,11.9 nM
same,TGI,RXF 393 renal,> 100000 nM
same,GI50,TK-10 renal,< 10 nM
same,TGI,TK-10 renal,> 100000 nM
same,GI50,SNB-19 CNS,< 10 nM
same,TGI,SNB-19 CNS,98.7 nM
same,GI50,SK-MEL-28 melanoma,< 10 nM
same,TGI,SK-MEL-28 melanoma,> 100000 nM
same,GI50,HCC-2998 colon,< 10 nM
same,TGI,HCC-2998 colon,> 100000 nM
same,GI50,ACHN renal,< 10 nM
same,TGI,ACHN renal,> 100000 nM
same,GI50,OVCAR-4 ovarian,> 100000 nM
same,TGI,OVCAR-4 ovarian,> 100000 nM
same,GI50,UACC-257 melanoma,6070 nM
same,TGI,UACC-257 melanoma,> 100000 nM
same,GI50,K-562 leukemia,< 10 nM
same,TGI,K-562 leukemia,> 100000 nM
same,GI50,SF-539 CNS,< 10 nM
same,TGI,SF-539 CNS,> 100000 nM
same,GI50,M14 melanoma,< 10 nM
same,TGI,M14 melanoma,< 10 nM
same,GI50,PC-3 prostate,< 10 nM
same,TGI,PC-3 prostate,> 100000 nM
same,GI50,HOP-62 NSCLC,< 10 nM
same,TGI,HOP-62 NSCLC,19.5 nM
same,GI50,786-0 renal,< 10 nM
same,TGI,786-0 renal,> 100000 nM
same,GI50,HT29 colon,< 10 nM
same,TGI,HT29 colon,> 100000 nM
same,GI50,SF-295 CNS,< 10 nM
same,TGI,SF-295 CNS,< 10 nM
same,GI50,NCI-H460 NSCLC,< 10 nM
same,TGI,NCI-H460 NSCLC,> 100000 nM
same,GI50,OVCAR-5 ovarian,< 10 nM
same,TGI,OVCAR-5 ovarian,> 100000 nM
same,GI50,HCT-15 colon,< 10 nM
same,TGI,HCT-15 colon,> 100000 nM
same,GI50,MDA-MB-468 breast,> 100000 nM
same,TGI,MDA-MB-468 breast,> 100000 nM
same,GI50,UO-31 renal,< 10 nM
same,TGI,UO-31 renal,> 100000 nM
same,GI50,LOX IMVI melanoma,< 10 nM
same,TGI,LOX IMVI melanoma,> 100000 nM
same,GI50,T-47D breast,< 10 nM
same,TGI,T-47D breast,> 100000 nM
same,GI50,MALME-3M melanoma,17.9 nM
same,TGI,MALME-3M melanoma,> 100000 nM
same,GI50,KM12 colon,> 100000 nM
same,TGI,KM12 colon,> 100000 nM
same,GI50,NCI-H522 lung,< 10 nM
same,TGI,NCI-H522 lung,< 10 nM
same,GI50,SK-MEL-5 melanoma,> 100000 nM
same,TGI,SK-MEL-5 melanoma,> 100000 nM
same,GI50,SK-OV-3 ovarian,< 10 nM
same,TGI,SK-OV-3 ovarian,> 100000 nM
same,GI50,NCI-H226 lung,55500 nM
same,TGI,NCI-H226 lung,> 100000 nM
same,GI50,SN12C renal,< 10 nM
same,TGI,SN12C renal,< 10 nM
same,GI50,MCF7 breast,< 10 nM
same,TGI,MCF7 breast,> 100000 nM
same,GI50,RPMI-8226 leukemia,< 10 nM
same,TGI,RPMI-8226 leukemia,< 10 nM
same,GI50,MOLT-4 leukemia,< 10 nM
same,TGI,MOLT-4 leukemia,< 10 nM
same,GI50,NCI-H322M lung,> 100000 nM
same,TGI,NCI-H322M lung,> 100000 nM
same,GI50,DU-145 prostate,< 10 nM
same,TGI,DU-145 prostate,> 100000 nM
same,GI50,BT-549 breast,< 10 nM
same,TGI,BT-549 breast,> 100000 nM
same,GI50,MDA-MB-435 melanoma,< 10 nM
same,TGI,MDA-MB-435 melanoma,> 100000 nM
same,GI50,OVCAR-3 ovarian,< 10 nM
same,TGI,OVCAR-3 ovarian,> 100000 nM
same,GI50,COLO 205 colon,< 10 nM
same,TGI,COLO 205 colon,> 100000 nM
same,GI50,A549 NSCLC,< 10 nM
same,TGI,A549 NSCLC,> 100000 nM
same,GI50,OVCAR-8 ovarian,< 10 nM
same,TGI,OVCAR-8 ovarian,> 100000 nM
same,GI50,NCI/ADR-RES ovarian,< 10 nM
same,TGI,NCI/ADR-RES ovarian,< 10 nM
